The series in a line: Partition coefficient of compound (A) in solvents. It counts as physicochemical. To be noted: HPLC, approximately 25° C. The method, then:
Experimental procedure for the respective solvent: (1) A solution of 10 g of compound (A) is prepared in 90 g of the respective solvent. (2) An aliquot of 10 g of the solution obtained in step (1) is added to 90 g of water in a glass bottle, which is shaken on a mechanical shaker for 4 hours at ambient temperature (approximately 25° C.). (3) The contents of the glass bottle are permitted to phase separate for 4 days at ambient temperature (approximately 25° C.). (4) Subsamples of the resulting oil and water phases are taken and analyzed by HPLC to determine the concentrations of compound (A) in oil (Co) and water phases (Cw) respectively. The subsamples are typically centrifuged before HPLC analysis to remove traces of organic solvent from the water phase.
A Partition Coefficient, analogous to the Octanol-Water Partition Coefficient, P, is calculated as Co/Cw. The Partition Coefficient is conveniently expressed as a logarithm […].
The ratio of determined concentrations of compound (A) in the solvent phase and the water phase typically is very large. […] In other cases, traces of the organic solvent are found in the water phase, even after centrifugation, so that the apparent concentration of oil-soluble herbicide observed in the water phase is misleadingly high. […]

Data on one compound can be found in US20230053941A1, “MICROEMULSIONS WITH DICAMBA SALTS HAVING IMPROVED PROPERTIES” (MONSANTO TECHNOLOGY LLC, priority 2020, published 2023).

As for `CCOC(=O)COc1ncccc1Oc1cc(-n2c(=O)cc(C(F)(F)F)n(C)c2=O)c(F)cc1Cl` [Cmp. A, ethyl [3-[2-chloro-4-fluoro-5-(1-methyl-6-trifluoromethyl-2,4-dioxo-1,2,3,4-tetrahydropyrimidin-3-yl)phenoxy]-2-pyridyloxy]acetate], the “compound (A) in the water phase” value runs as follows: (acetophenone as organic solvent) “undetectable”; (aromatic 200 ND as organic solvent) “undetectable”.
